# Test results taken from patent US5880122A, “3-Carboxamide derivatives of 5H-pyrrolo[2,1-c][1,4]-benzodiazepines” (American Home Products Corporation, priority 1997, dated 1999).
# Counter-ions that a name gives are not always drawn.
# Test system: Endogenous Arginine Vasopressin Antidiuretic (V2) Response
# Assay: Antagonism of endogenous arginine vasopressin antidiuretic (V2) response in conscious rats (urine volume)
# Format: in vivo, Sprague-Dawley rats
# Conditions: oral 10 mg/kg dose, urine collected for 4 hours, no water during test
# Experimental: On the day of test, rats were placed individually into metabolic cages equipped with stainless steel screens (to separate the feces from the urine) and funnels for collection of urine. Vehicle or reference agent was given at various oral doses. During the test, rats were not provided with water or food. Urine was collected for four hours after dosing of the test compound. At the end of four hours, urine volume was measured. […] Determinations of Na^+, K^+ and Cl^- ion were carried out using ion specific electrodes in a Beckman SYNCHRON EL-ISE Electrolyte System analyzer.
row,Structure (SMILES),Urine Volume (ml/4 hrs) 10 mg/kg rat p.o. [ml/4 hrs]
1,Cc1ccc(F)cc1C(=O)Nc1ccc(C(=O)N2Cc3ccc(C(=O)N[N+](C)(C)C)n3Cc3ccccc32)c(Cl)c1 [Example 4],9.2
2,"Cc1ccc(F)cc1C(=O)Nc1ccc(C(=O)N2Cc3ccc(C(=O)[N-][N+](C)(C)C)n3Cc3ccccc32)c(Cl)c1 [Example 5, 2-[[10-[2-Chloro-4-[(5-fluoro-2-methylbenzoyl)amino]benzoyl]-10,11-dihydro-5H-pyrrolo[2,1-c][1,4]benzodiazepin-3-yl]hydroxymethylenel-1.1,1-trimetpyIpydraziniuminner salt]",9.1
3,O=C(Nc1ccc(C(=O)N2Cc3ccc(C(=O)O)n3Cc3ccccc32)c(Cl)c1)c1ccccc1-c1ccccc1 [Example 7],19.2
4,CN(C)NC(=O)c1ccc2n1Cc1ccccc1N(C(=O)c1ccc(NC(=O)c3ccccc3-c3ccccc3)cc1Cl)C2 [Example 8],40.9
5,CN1CCN(C(=O)c2ccc3n2Cc2ccccc2N(C(=O)c2ccc(NC(=O)c4ccccc4-c4ccccc4)cc2Cl)C3)CC1 [Example 9],23.7
6,"O=C(Nc1ccc(C(=O)N2Cc3ccc(C(=O)N4CCC(N5CCCCC5)CC4)n3Cc3ccccc32)c(Cl)c1)c1ccccc1-c1ccccc1 [Example 11, Biphenyl-2-carboxylic acid{3-chloro-4-[3-(4-piperidinyl-pilperidine-1-carbonyl)-5H,11H-pyrrolo[2,1-c][1,4]benzodiazepine-10-carbonyl]-phenyl}-amide.]",20.5
7,"CN(C)C1CCN(C(=O)c2ccc3n2Cc2ccccc2N(C(=O)c2ccc(NC(=O)c4ccccc4-c4ccccc4)cc2Cl)C3)CC1 [Example 12, Biphenyl-2-carboxylic acid {3-chloro-4-[3-(4-dimethylamino-piperidine-1-carbonyl)-5H,11H-1pyrrolo[2,1-c][1,4]benzodiazeline-10-carbonyl]-phenyl}-amide.]",21.4
8,"CN1CCN(NC(=O)c2ccc3n2Cc2ccccc2N(C(=O)c2ccc(NC(=O)c4ccccc4-c4ccccc4)cc2Cl)C3)CC1 [Example 13, Bilphenyl-2-carboxylic acid{3-chloro-4-[3-(4-methyl-piperazine-1 aminocarbonyl)-5H,11H-pyrrolo[2,1-c][1,4]benzodiazepine-10-carbonyl]-phenyl}-amide.]",16.8
9,"O=C(Nc1ccc(C(=O)N2Cc3ccc(C(=O)N4CCC(N5CCOCC5)CC4)n3Cc3ccccc32)c(Cl)c1)c1ccccc1-c1ccccc1 [Example 15, Biphenyl-2-carboxylic acid{3-chloro-4-[3-(4-morpholino-1piperidine-1-carbonyl)-5H,11H-pyrrolo[2,1-c][1,4]benzodiazepine-10-carbonyl]-phenyl}-amide.]",19.3
10,COc1cc(NC(=O)c2ccccc2-c2ccccc2)ccc1C(=O)N1Cc2ccc(C(=O)N3CCN(C)CC3)n2Cc2ccccc21 [Example 16],24.3
11,COc1cc(NC(=O)c2ccccc2-c2ccccc2)ccc1C(=O)N1Cc2ccc(C(=O)NN(C)C)n2Cc2ccccc21 [Example 17],9.4
12,O=C(O)CNC(=O)c1ccc2n1Cc1ccccc1N(C(=O)c1ccc(NC(=O)c3ccccc3-c3ccccc3)cc1Cl)C2 [Example 18],7.8

# Target: T1, Human V2 Vasopressin Receptor (Homo sapiens, UniProt P30518)
# T1 construct: expressed in transfected cells; host or cells: mouse fibroblast cell line LV-2
# Assay: Binding to membranes of mouse fibroblast cell line (LV-2) transfected with the cDNA expressing the human V2 vasopressin receptor
# Conditions: LV-2 cell membranes, [3H] Arginine8 vasopressin 0.8 nM, 120 min
# Experimental: Flasks of 175 ml capacity, containing attached cells grown to confluence, are cleared of culture medium by aspiration. The flasks containing the attached cells are rinsed with 2×5 ml of phosphate buffered saline (PBS) and the liquid aspirated off each time. Finally, 5 ml of an enzyme free dissociation Hank's based solution (Specialty Media, Inc., Lafayette, N.J.) is added and the flasks are left undisturbed for 2 min. The content of all flasks is poured into a centrifuge tube and the cells pelleted at 300×g for 15 min. […] The homogenate is centrifuged at 1500×g for 10 min to remove ghost membranes. […] Upon completion, the pellet is resuspended in a small volume of 50.0 mM Tris.HCl buffer, pH 7.4. The protein content is determined by the Lowry method and the receptor membranes are suspended in 50.0 mM Tris.HCl buffer containing 0.1 mM phenylmethylsulfonylfluoride (PMSF) and 0.2% bovine serum albumin (BSA) to give 2.5 mg receptor protein per ml of suspension.
# Arginine^8, vasopressin (S.A. 75.0 Ci/mmole) at 0.8 nM and the reaction initiated by the addition of 80.0 ml of tissue membranes (200.0 mg tissue protein). […] Non specific binding is assessed in the presence of 1.0 mM of unlabeled ligand, added in 20 ml volume. […] The data are analyzed for IC50 values by the LUNDON-2 program for competition (LUNDON SOFTWARE, Ohio).
# T1 sequence (P30518 whole entry): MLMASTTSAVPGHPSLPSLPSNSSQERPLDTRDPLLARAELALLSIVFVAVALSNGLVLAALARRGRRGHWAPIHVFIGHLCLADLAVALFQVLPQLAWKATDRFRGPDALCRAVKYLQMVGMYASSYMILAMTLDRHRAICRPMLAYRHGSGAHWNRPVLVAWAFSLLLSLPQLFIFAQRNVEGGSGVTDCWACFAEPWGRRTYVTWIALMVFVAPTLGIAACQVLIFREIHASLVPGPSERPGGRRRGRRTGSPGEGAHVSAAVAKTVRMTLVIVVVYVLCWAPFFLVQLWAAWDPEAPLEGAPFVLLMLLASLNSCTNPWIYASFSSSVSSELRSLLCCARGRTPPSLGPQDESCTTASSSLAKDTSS
row,Structure (SMILES),IC50 [nM]
1,"Cc1ccc(F)cc1C(=O)Nc1ccc(C(=O)N2Cc3ccc(C(=O)[N-][N+](C)(C)C)n3Cc3ccccc32)c(Cl)c1 [Example 5, 2-[[10-[2-Chloro-4-[(5-fluoro-2-methylbenzoyl)amino]benzoyl]-10,11-dihydro-5H-pyrrolo[2,1-c][1,4]benzodiazepin-3-yl]hydroxymethylenel-1.1,1-trimetpyIpydraziniuminner salt]",60
2,"O=C(Nc1cc(C(=O)N2Cc3ccc(C(=O)C(Cl)(Cl)Cl)n3Cc3ccccc32)ccc1Cl)c1ccccc1-c1ccccc1 [Example 6, N-[5-[3-trichloromethylcarbnyl]-[5H-pyrrolo-[2,1-c]-[1,4]-benzdiazalin-10(11H)-ylcarbonyl]-2-chloronhenyl]-2-henylbenzamide]",5.6
